Assay results reported in PMC6940354, “Comparative Assessment of the New PDE7 Inhibitor – GRMS-55 and Lisofylline in Animal Models of Immune-Related Disorders: A PK/PD Modeling Approach” (Pharmaceutical Research, 2020).
Read-outs that look alike come from different tables or passages of the source.

Experiments:
[1] = Pharmacokinetics in female Lewis rats; format: in vivo, rat; settings: for fraction of the dose absorbed (F): calculated from Eq. 4
Method: The same vehicles as these in pharmacodynamic studies for each compound and route of administration were used. Rats were implanted with catheters into the jugular vein and after a two-day period they were administered with the investigated compounds by the listed above routes of administration. […] Samples were subsequently centrifuged at 3000 × g for 10 min. Plasma was stored at −80°C until analysis.
A detailed description of these methods has been provided in the supplementary materials.
Firstly, the concentration-time data collected for each individual compound from one of the investigated rat strains (Wistar or Lewis) were subjected to a non-compartmental analysis (NCA). Subsequently, pharmacokinetic models were developed for each investigated compound and strain of rat. One- and two- compartment models with linear or non-linear elimination were tested. […] The final models were chosen based on the goodness-of-fit criteria, such as Akaike Information Criterion (AIC), Schwarz Bayesian Criterion (SBC), weighted sum of squared residuals (WSSR), a visual inspection of fitting, and precision of estimated parameters expressed as coefficients of variation % (CVs%). NCA analysis was performed in Phoenix WinNonlin v. 7.0 (Pharsight Corp., a Certara Company, Princeton, New Jersey). Pharmacokinetic model parameters were estimated in ADAPT 5 software (BMSR, Los Angeles, CA) using the weighted least squares algorithm. Fraction of the dose absorbed (F) following an extravascular (EV) administration was calculated according to the Eq. 4:4 F=AUC0−tEV·DIV/AUC0−tIV·DEV where AUC0-t is the area under concentration versus time curve from 0 to the last measured point and D is dose.
The route of (±)-LSF administration was selected based on the results of our recent study, where SC route of administration was recognized as the most preferential for this compound ([20]). The concentration-time data for each of the investigated compounds were simultaneously fitted to obtain a single set of pharmacokinetic parameters.
The remaining symbols and parameters have been explained and defined in Fig. 2 and Table II.
Then, the samples were extracted with 1 mL of dichloromethane for 20 min using a VXR Vibrax shaker (IKA, Germany). Subsequently, all tubes were centrifuged (10 000×g, 8 min) using EBA 12 R centrifuge (Hettich, Germany). Organic layers were collected and transferred to clear propylene tubes and evaporated in water bath under a gentle stream of nitrogen at 37°C. Dry residues were then dissolved in 100 μL of mobile phase and subjected to the HPLC analysis. The HPLC system (LaChrom Elite, Merck-Hitachi, Germany) consisted of an L-2130 pump, an L-2200 autosampler, and an L-2420 UV-VIS detector. EZChrome Elite v. 3.2 (Merck-Hitachi, Germany) computer program was used for data acquisition and integration. The separation of GRMS-55 was performed using a LiChrospher 100 RP-18 (250×4 mm) column with a particle size of 5 μm protected with a LiChroCART (4×4 mm, RP-18) guard column (Merck, Germany). […] The separation of both investigated compounds was performed at ambient temperature. […] In turn, the retention time of GRMS-55 was 9.2 min. and that of its IS was 5.3 min.

[2] = system: TNF-α release from LPS-stimulated whole rat blood; experiment: Inhibition of LPS-induced TNF-α release in whole rat blood; format: cell-based
Method: Stimulation of whole rat blood by LPS was performed on 96-well plates. […] Contents of each well (200 μL) consisted of heparinized rat blood containing 10 U heparin mL^−1 diluted with RPMI-1640 medium at a ratio of 1:1 (v/v). All compounds were dissolved in DMSO and added to blood (the final DMSO concentration in blood was 0.5%) 15 min prior to the addition of LPS dissolved in RPMI-1640 medium to achieve the LPS concentration of 10 mg L^−1. Both, LPS and DMSO were also added to control wells at the same concentrations. Additional control samples (for testing baseline TNF-α levels in blood) consisted of DMSO (0.5%) without LPS. The incubation was performed at 37°C in a humidified atmosphere of 5% CO2 in an MCO-5 AC-PE incubator (PHCbi, Japan). After 6 h of incubation, the plates were centrifuged for 10 min using PlateFuge MicroCentrifuge (Benchmark Scientific, USA). The individual plasma samples were harvested and stored at −80°C until analysis.
TNF-α levels in LPS-stimulated rat blood in vitro and in rat plasma samples from the in vivo studies were analyzed by the Rat TNF-α Quantikine ELISA Immunoassay Kit (R&D Systems, USA) according to the manufacturer’s instructions. The assay was linear at the range of 12.5–800 pg mL^−1. Levels of TNF-α in mice serum were measured by ELISA Kits for Tumor Necrosis Factor Alpha (Cloud-Clone Corp., USA). This assay was linear at the range of 15.6–1000 pg mL^−1. Absorbance was measured at 450 nm using a POLARstar Omega multi-mode microplate reader (BMG LABTECH, Germany).

[3] = LPS 10 mg L^−1, 6 h incubation, compared to LPS-treated control
[4] = rat, plasma, other: GRMS-55 IV and IP, rolipram IP, female Lewis rats, read-out: half-life calculated as ln2·V1/Clt (elimination half-life)

SMILES | fraction of the dose absorbed (F) ([1]; female Lewis rats, SC administration) [%] | volume of distribution, times lower in female Lewis rats compared to male Wistar rats ([1]; female Lewis vs male Wistar rats) [times] | half-life ([1]; rat, plasma, 80 mg kg^-1, female Lewis rats, SC administration, flip-flop pharmacokinetics, read-out: plasma terminal half-life) [min] | Vd ([1]; rat, plasma, other: IV and SC, female Lewis rats, (±)-LSF IV 40 and SC 80 mg kg^−1, read-out: VLSF, volume of distribution of (±)-LSF, Estimate (CV%)) [L/kg] | k el ([1]; rat, plasma, other: IV and SC, female Lewis rats, (±)-LSF IV and SC, read-out: kd, overall parent elimination rate constant, Estimate (CV%) (converted)) [s⁻¹] | Reduction of TNF-α levels in LPS-stimulated whole rat blood (result in words) [2, 3] | fraction of the dose absorbed (F) ([1]; female Lewis rats, IP administration) [%] | half-life [1, 4] [min] | Inhibition of TNF-α release in LPS-stimulated whole rat blood (result in words) ([2]; levels of 50 and 250 μM, compared to the control wells) | Vd/F ([1]; female, Lewis, rat, plasma, ip, 10 mg/kg, read-out: V(ROL)/F, volume of distribution divided by fraction absorbed, Estimate (CV%)) [L/kg] | Reduction of TNF-α levels in LPS-stimulated whole rat blood (result in words) ([2]; concentration of 50 μM, compared to the control group)
CC(O)CCCCn1c(=O)c2c(ncn2C)n(C)c1=O (racemic) [(±)-LSF, lisofylline] | 95 | 3.3 | 23 | 0.37 | 0.00353 | significantly and with similar potency reduced | – | – | – | – | –
Cn1c(=O)c2c(nc(NCCc3ccccc3)n2CCCC(=O)NN=Cc2ccccc2O)n(C)c1=O [GRMS-55, 4-(1,3-Dimethyl-2,6-dioxo-8-(phenethylamino)-2,3,6,7-tetrahydro-1H-purin-7-yl)-N′-(2-hydroxybenzylidene)butanehydrazide] | – | – | – | – | – | did not exhibit activity | 23 | 21 | failed to inhibit TNF-α release | – | –
COc1ccc(C2CNC(=O)C2)cc1OC1CCCC1 (stereo not shown) [Rolipram, rolipram] | – | – | – | – | – | – | – | 30 | – | 1.02 | completely reduced
